In patent US20180161290A1, “Dosage Regimen of Diaryl Sulfide Derivatives” (Novartis AG, priority 2010, published 2018):

What was measured:
healthy subjects [1] = assay: Multiple ascending dose study in healthy subjects: blood lymphocyte levels; type: in vivo, human
Experimental: For example in tests on healthy subjects, the maximum percent decrease (geometric mean, 95% confidence interval) from pre-dose blood lymphocyte levels during once daily dosing of compound A for 14 days (28 days for the 2 mg dose level) in healthy subjects was 39% for 0.3 mg, 65% for 0.6 mg, 74% for 1.2 mg, 83% for 2 mg and 77% for 3 mg. The corresponding reduction in the placebo group was 29%, which may be explained by the normal lymphocyte level variability and the definition of the endpoint.
(§1) Multiple ascending doses of compound A were investigated in healthy subjects. 60 subjects in 5 cohorts (12 subjects per cohort) were dosed at 0.3 mg, 0.6 mg, 1.2 mg and 3 mg once daily for 14 days and at 2 mg for 28 days. In each cohort, subjects were randomised between compound A (9 subjects) and placebo (3 subjects).

healthy subjects [2] = assay: Multiple ascending dose study in healthy subjects: effect on heart rate (Example 1); type: in vivo, human; settings: 0.3, 0.6, 1.2, 2 and 3 mg once daily, hourly average heart rate, FIG. 1
Experimental: The effect on heart rate of 2-amino-2-[4-(3-benzyloxyphenylthio)-2-chlorophenyl]ethyl propane-1,3-diol (Compound A, or KRP203) was measured in healthy subjects over a period of 28 days and compared to placebo.
as §1
The day 28 graphic compares placebo and 2 mg dose.

healthy male volunteers = assay: Double blind, placebo controlled, dose titration, once daily multiple oral dose study (Example 2); type: in vivo, human; settings: for hourly minimum HR (heart rate) change from baseline: FIG. 3
Experimental: A total of 56 healthy male volunteers were enrolled in a double blind, parallel, placebo controlled, dose titration, once daily, multiple oral dose study. 53 (95%) subjects completed the study.
Increasing doses of 2-amino-2-[4-(3-benzyloxyphenylthio)-2-chlorophenyl]ethyl-propane-1,3-diol (Compound A) starting at 0.3 mg o.d. or 0.5 mg o.d. and ending at the maximal therapeutic dose of 2 mg o.d. were administered to the subjects as specified in Table 1 below.
Each subject participated in a maximal 21-day Screening period, a Baseline period (Day −2), Run-in period (Day −1), a 21-day treatment period, 14-day Follow up period (with a Follow up visit on Day 35) and study completion assessments on Day 42. Subjects were assigned to one of the four groups (#1 or #2 dose titration group, placebo- or fixed-dose group) and received the once daily (o.d.) treatment in a double blinded manner.
On Day -1 (Run-in), all subjects received placebo and underwent baseline assessments including 24 hour Holter monitoring.
All the study drugs were administered between 8:00 and 8:30, immediately after modest breakfast started 30 min prior to dosing. Dosing was performed as closely as practically possible between the subjects (e.g. within 15 min).
The primary variable, the daily number of bradycardia episodes as defined in the primary objective, were modeled by means of a repeated Poisson model adjusted for the number of bradycardia episodes at Baseline, the day, the treatment, and the treatment-by-day interaction. Generalized Estimating Equations were used to estimate the parameters of the model, including the mean (and 95% CI) number of bradycardia episodes for each treatment group on each day.
The primary objective of the study was assessed from the estimated ratio, obtained from the model above, between the mean number of bradycardia episodes on each ‘dose increase day’ in each titration regimen versus the mean number of bradycardia episodes on Day 1 in the fixed-dose group, and from the 95% CI for this ratio.
The treatment effect in term of other measures of bradycardia, including the change from baseline in hourly (daily) minimum and mean heart rates, was also investigated using an appropriate model.

healthy subjects [3] = settings: 1.25 mg of FTY720; cited from earlier work

NC(CO)(CO)CCc1ccc(Sc2cccc(OCc3ccccc3)c2)cc1Cl [Compound A, 2-amino-2-[4-(3-benzyloxyphenylthio)-2-chlorophenyl]ethyl-propane-1,3-diol]
maximum percent decrease (geometric mean) from pre-dose blood lymphocyte levels (healthy subjects [1]; 0.3 mg once daily for 14 days): 39%
maximum percent decrease (geometric mean) from pre-dose blood lymphocyte levels (healthy subjects [1]; 0.6 mg once daily for 14 days): 65%
maximum percent decrease (geometric mean) from pre-dose blood lymphocyte levels (healthy subjects [1]; 1.2 mg once daily for 14 days): 74%
maximum percent decrease (geometric mean) from pre-dose blood lymphocyte levels (healthy subjects [1]; 2 mg once daily for 28 days): 83%
maximum percent decrease (geometric mean) from pre-dose blood lymphocyte levels (healthy subjects [1]; 3 mg once daily for 14 days): 77%
decrease in heart rate following dosing (healthy subjects [2]): observed to increase with increasing dosage
hourly minimum HR (heart rate) change from baseline (healthy male volunteers; after Day 13, all subjects): no decrease in HR compared to matched baseline
safety and tolerability (healthy male volunteers; both titration regimens): safe and well tolerated
AE (adverse events) profile (healthy male volunteers; dose titration groups versus placebo): No discernable difference
hourly minimum HR (heart rate) change from baseline (healthy male volunteers; fixed dose regimen 2 mg o.d.): maximum decrease in HR on Days 1 & 2 compared to the 2 titration regimens and resolved by day 5
number of bradycardia episodes per day (healthy male volunteers; titration regimens T#1 and T#2 versus fixed dose 2 mg day 1, FIG. 2): Both titration regimens had less bradycardic episodes compared to fixed dose day 1
SAEs (severe adverse events) (healthy male volunteers; titration study, 21-day treatment): No SAEs (severe adverse events) were reported

CCCCCCCCc1ccc(CCC(N)(CO)CO)cc1 [FTY720]
decrease in heart rate (healthy subjects [3]): approximately 8 beats/min
